From patent US10696671B2, “Imidazo[1,2-A]pyridine derivatives, methods for preparing the same and use thereof” (Jeil Pharmaceutical Co., Ltd., priority 2016, dated 2020)
pIC50: −log10 of the molar value.

Molecular target: T1, proton pump (H+/K+-ATPase), porcine gastric vesicles (Sus scrofa, UniProt P19156)
T1 construct: reaction buffer (50 mmol/L Tris-Hepes buffer, pH 6.4) containing porcine gastric vesicles; from tissue; host or cells: porcine gastric mucosa (gastric vesicles prepared by centrifugation)
T1 sequence (P19156 2-1034 limits assumed): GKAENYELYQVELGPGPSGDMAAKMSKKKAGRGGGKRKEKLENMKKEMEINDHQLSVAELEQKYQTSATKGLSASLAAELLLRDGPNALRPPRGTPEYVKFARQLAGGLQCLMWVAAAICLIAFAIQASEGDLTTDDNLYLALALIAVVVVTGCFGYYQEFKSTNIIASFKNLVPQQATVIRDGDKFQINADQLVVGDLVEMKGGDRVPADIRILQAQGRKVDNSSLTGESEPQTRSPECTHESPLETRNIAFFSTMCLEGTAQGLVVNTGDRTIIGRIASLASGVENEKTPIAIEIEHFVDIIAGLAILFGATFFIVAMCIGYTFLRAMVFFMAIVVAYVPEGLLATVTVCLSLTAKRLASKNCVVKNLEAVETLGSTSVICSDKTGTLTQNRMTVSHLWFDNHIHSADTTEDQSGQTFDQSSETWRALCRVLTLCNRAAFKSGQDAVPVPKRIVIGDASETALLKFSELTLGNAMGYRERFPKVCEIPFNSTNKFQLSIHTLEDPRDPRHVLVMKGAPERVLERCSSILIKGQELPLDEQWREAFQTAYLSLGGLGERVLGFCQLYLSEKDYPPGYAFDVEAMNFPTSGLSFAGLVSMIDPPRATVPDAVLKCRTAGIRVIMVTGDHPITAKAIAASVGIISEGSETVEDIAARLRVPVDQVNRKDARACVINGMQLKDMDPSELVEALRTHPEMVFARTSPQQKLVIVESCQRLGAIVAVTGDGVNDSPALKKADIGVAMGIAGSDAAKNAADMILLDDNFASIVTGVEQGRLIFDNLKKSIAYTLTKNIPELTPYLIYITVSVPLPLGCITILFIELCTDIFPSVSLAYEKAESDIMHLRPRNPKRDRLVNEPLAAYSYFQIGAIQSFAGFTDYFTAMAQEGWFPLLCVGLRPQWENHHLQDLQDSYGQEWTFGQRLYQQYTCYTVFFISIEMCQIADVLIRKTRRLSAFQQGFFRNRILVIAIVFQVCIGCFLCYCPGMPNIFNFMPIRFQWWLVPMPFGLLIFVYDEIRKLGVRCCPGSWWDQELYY
T1 sequence (P18434 whole entry partner): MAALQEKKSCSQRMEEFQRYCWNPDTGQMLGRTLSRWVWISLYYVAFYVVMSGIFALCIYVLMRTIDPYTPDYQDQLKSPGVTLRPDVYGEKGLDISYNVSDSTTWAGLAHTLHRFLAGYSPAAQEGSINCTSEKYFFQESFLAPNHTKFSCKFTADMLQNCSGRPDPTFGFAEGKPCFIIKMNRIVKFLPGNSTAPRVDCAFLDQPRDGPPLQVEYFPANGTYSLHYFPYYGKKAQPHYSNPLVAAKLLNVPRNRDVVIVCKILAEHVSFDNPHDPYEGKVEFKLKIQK
Experiment: Inhibitory effects against proton pump (H+/K+-ATPase) activity, malachite green phosphate assay
Type: biochemical
Settings: pH 6.4, 37° C., K+-dependent activity
Protocol: Test Example 1: Preparation of Gastric Vesicles
Gastric vesicles used in the experiment were prepared by separation from porcine gastric mucosa according to a centrifugation method [Saccomani G, et al., A Nonelectrogenic H^+ Pump in Plasma Membranes of Hog Stomach, J Biol Chem., 1976, 251 (23), 7690-8]. Next, the protein content of the gastric vesicles was quantified using a bicinchoninic acid kit [Smith P K, et al., Measurement of protein using bicinchoninic acid, Anal Biochem., 1985, 150 (1), 76-85)].
Test Example 2: Measurement of Inhibitory Effects Against Proton Pump (H^+/K^+-ATPase) Activity
The inhibitory effects of the compounds against proton pump activity were calculated based on the pump activity determined in the presence of K^+ ions excluding the pump activity determined in the absence of K^+ ions. The inhibitory effects against proton pump activity were measured in 96-well plates, and all reactions were performed with a reaction volume of […] at 37° C. Specifically, 10 μm of valinomycin and each concentration of each compound were pre-incubated in a reaction buffer (50 mmol/L Tris-Hepes buffer, pH 6.4) containing porcine gastric vesicles for 15 minutes. For negative and positive control groups, 1% DMSO was added to buffer, and for test groups, 1% DMSO and a dilution of each concentration of each compound were added. Next, 0.2 mmol/L of adenosine triphosphate (ATP) was added to the reaction buffer and incubated at 37° C. for 40 minutes. After completion of the incubation, a malachite green solution was added to the reaction buffer and incubated for 30 minutes, and the amount of inorganic phosphate in the reaction buffer was measured by colorimetry using a malachite green phosphate assay Kit (Bioassay Systems). For colorimetry, the OD (optical density) at 620 nm was measured using a microplate reader [Synergy H4, hybrid multimode microplate reader, BioTek]. The percent inhibition of proton pump (H^+/K^+-ATPase) was determined based on the OD value of the control group and the OD values of various concentrations of the test compounds, and the IC50 of each test compound was calculated using the Logistic 4-parameter function of Sigmaplot 8.0 program.

SMILES | pIC50
CC(=O)OC1CN(C(=O)c2cc(NCc3c(C)cccc3C)c3nc(C)c(C)n3c2)C1 [Example 2, 1-{8-[(2,6-dimethylbenzyl)amino]-2,3-dimethylimidazo[1,2-α]pyridine-6-carbonyl}azetidin-3-yl acetate] | 6.89
COCCOC1CN(C(=O)c2cc(NCc3c(C)cccc3C)c3nc(C)c(C)n3c2)C1 [Example 5, {8-[(2,6-dimethylbenzyl)amino]-2,3-dimethylimidazo[1,2-α]pyridin-6-yl}[3-(2-methoxyethoxy)azetidin-1-yl]methanone] | 6.93
Cc1ccccc1CNc1cc(C(=O)N2CC(O)C2)cn2c(C)c(C)nc12 [Example 23, {2,3-dimethyl-8-[(2-methylbenzyl)amino]imidazo[1,2-α]pyridin-6-yl}(3-hydroxyazetidin-1-yl)methanone] | 6.43
Cc1cc(F)ccc1CNc1cc(C(=O)N2CC(O)C2)cn2c(C)c(C)nc12 [Example 27, {8-[(4-fluoro-2-methylbenzyl)amino]-2,3-dimethylimidazo[1,2-α]pyridin-6-yl}(3-hydroxyazetidin-1-yl)methanone] | 6.87
Cc1cc(F)ccc1CNc1cc(C(=O)N2CCC2)cn2c(C)c(C)nc12 [Example 28, azetidin-1-yl {8-[(4-fluoro-2-methylbenzyl)amino]-2,3-dimethylimidazo[1,2-α]pyridin-6-yl}methanone] | 6.99
Cc1cc(F)ccc1CNc1cc(C(=O)N2CC(F)C2)cn2c(C)c(C)nc12 [Example 29, {8-[(4-fluoro-2-methylbenzyl)amino]-2,3-dimethylimidazo[1,2-α]pyridin-6-yl}(3-fluoroazetidin-1-yl)methanone] | 6.19
Cc1cc(F)ccc1CNc1cc(C(=O)N2CC(C)C2)cn2c(C)c(C)nc12 [Example 30, {8-[(4-fluoro-2-methylbenzyl)amino]-2,3-dimethylimidazo[1,2-α]pyridin-6-yl}(3-methylazetidin-1-yl)methanone] | 6.57
Cc1cc(F)ccc1CNc1cc(C(=O)N2CC(C)(O)C2)cn2c(C)c(C)nc12 [Example 31, {8-[(4-fluoro-2-methylbenzyl)amino]-2,3-dimethylimidazo[1,2-α]pyridin-6-yl}(3-hydroxy-3-methylazetidine-1-yl)methanone] | 6.18
Cc1cc(F)cc(C)c1CNc1cc(C(=O)N2CCC2)cn2c(C)c(C)nc12 [Example 35, azetidin-1-yl{8-[(4-fluoro-2,6-dimethylbenzyl)amino]-2,3-dimethylimidazo[1,2-α]pyridin-6-yl}methanone] | 7.80
Cc1cc(F)cc(C)c1CNc1cc(C(=O)N2CC(C)C2)cn2c(C)c(C)nc12 [Example 37, {8-[(4-fluoro-2,6-dimethylbenzyl)amino]-2,3-dimethylimidazo[1,2-α]pyridin-6-yl}(3-methylazetidin-1-yl)methanone] | 7.68

Continued, values first:

pIC50 | SMILES
7.05 | COC1CN(C(=O)c2cc(NCc3c(C)cccc3C)c3nc(C)c(C)n3c2)C1 [Example 3, {8-[(2,6-dimethylbenzyl)amino]-2,3-dimethylimidazo[1,2-α]pyridin-6-yl}(3-methoxyazetidin-1-yl)methanone]
7.03 | CCOC1CN(C(=O)c2cc(NCc3c(C)cccc3C)c3nc(C)c(C)n3c2)C1 [Example 4, {8-[(2,6-dimethylbenzyl)amino]-2,3-dimethylimidazo[1,2-α]pyridin-6-yl}(3-ethoxyazetidin-1-yl)methanone]
7.32 | COC(=O)C1CN(C(=O)c2cc(NCc3c(C)cccc3C)c3nc(C)c(C)n3c2)C1 [Example 10, methyl 1-{8-[(2,6-dimethylbenzyl)amino]-2,3-dimethylimidazo[1,2-α]pyridine-6-carbonyl}azetidine-3-carboxylate]
7.19 | COCC1CN(C(=O)c2cc(NCc3c(C)cccc3C)c3nc(C)c(C)n3c2)C1 [Example 12, {8-[(2,6-dimethylbenzyl)amino]-2,3-dimethylimidazo[1,2-α]pyridin-6-yl}[3-(methoxymethyl)azetidin-1-yl]methanone]
6.92 | Cc1cccc(C)c1CNc1cc(C(=O)N2CC(F)(CO)C2)cn2c(C)c(C)nc12 [Example 13, {8-[(2,6-dimethylbenzyl)amino]-2,3-dimethylimidazo[1,2-α]pyridin-6-yl}[3-fluoro-3-(hydroxymethyl)azetidin-1-yl]methanone]
6.98 | Cc1cccc(C)c1CNc1cc(C(=O)N2CC(C)(CO)C2)cn2c(C)c(C)nc12 [Example 14, {8-[(2,6-dimethylbenzyl)amino]-2,3-dimethylimidazo[1,2-α]pyridin-6-yl}[3-(hydroxymethyl)-3-methylazetidin-1-yl]methanone]
7.14 | Cc1cccc(C)c1CNc1cc(C(=O)N2CC(C(C)O)C2)cn2c(C)c(C)nc12 (stereo not drawn) [Example 15, {8-[(2,6-dimethylbenzyl)amino]-2,3-dimethylimidazo[1,2-α]pyridin-6-yl}[3-(1-hydroxyethyl)azetidin-1-yl]methanone]
6.91 | Cc1cccc(C)c1CNc1cc(C(=O)N2CC(C(C)(C)O)C2)cn2c(C)c(C)nc12 [Example 16, {8-[(2,6-dimethylbenzyl)amino]-2,3-dimethylimidazo[1,2-α]pyridin-6-yl}[3-(2-hydroxypropan-2-yl)azetidin-1-yl]methanone]
6.74 | Cc1cccc(C)c1CNc1cc(C(=O)N2CCC2CO)cn2c(C)c(C)nc12 (stereo not drawn) [Example 17, {8-[(2,6-dimethylbenzyl)amino]-2,3-dimethylimidazo[1,2-α]pyridin-6-yl}[2-(hydroxymethyl)azetidin-1-yl]methanone]
6.85 | CC(=O)C1CN(C(=O)c2cc(NCc3c(C)cccc3C)c3nc(C)c(C)n3c2)C1 [Example 18, 1-{1-[8-({2,6-dimethylbenzyl}amino)-2,3-dimethylimidazo[1,2-α]pyridine-6-carbonyl]azetidin-3-yl}ethanone]
6.93 | Cc1cccc(C)c1CNc1cc(C(=O)N2CC(S(C)(=O)=O)C2)cn2c(C)c(C)nc12 [Example 19, {8-[(2,6-dimethylbenzyl)amino]-2,3-dimethylimidazo[1,2-α]pyridin-6-yl}[3-(methylsulfonyl)azetidin-1-yl]methanone]
7.34 | Cc1cccc(C)c1CNc1cc(C(=O)N2CC(CCO)C2)cn2c(C)c(C)nc12 [Example 20, {8-[(2,6-dimethylbenzyl)amino]-2,3-dimethylimidazo[1,2-α]pyridin-6-yl}[3-(2-hydroxyethyl)azetidin-1-yl]methanone]
6.22 | Cc1cccc(C)c1CNc1cc(C(=O)N2CC3(CNC3)C2)cn2c(C)c(C)nc12 [Example 21, {8-[(2,6-dimethylbenzyl)amino]-2,3-dimethylimidazo[1,2-α]pyridin-6-yl}(2,6-diazaspiro[3.3]heptan-2-yl)methanone]
7.10 | Cc1cccc(C)c1CNc1cc(C(=O)N2CC3(COC3)C2)cn2c(C)c(C)nc12 [Example 22, {8-[(2,6-dimethylbenzyl)amino]-2,3-dimethylimidazo[1,2-α]pyridin-6-yl}(2-oxa-6-azaspiro[3.3]heptan-6-yl)methanone]
6.73 | COC1(C)CN(C(=O)c2cc(NCc3c(C)cccc3C)c3nc(C)c(C)n3c2)C1 [Example 32, {8-[(2,6-dimethylbenzyl)amino]-2,3-dimethylimidazo[1,2-α]pyridin-6-yl}(3-methoxy-3-methylazetidin-1-yl)methanone]
